Results on 40 molecules are retold here after ChEMBL document CHEMBL3879915, “Methods of inhibiting PRMT5” (2014).

Some results are limits rather than exact numbers.

The target of one test is PRMT5/MEP50 complex (Homo sapiens, UniProt O14744). Put plainly: Inhibition of recombinant human fetal brain FLAG-tagged PRMT5/full length human testis 6His-tagged MEP50 expressed in baculovirus infected insect Sf9 cells using human histone H4 (1 to 15 residues) as substrate preincubated for 30 mins followed by [3H]-SAM addition.
PRMT5/MEP50 complex, sequence (O14744 whole entry, the tested form may be a part): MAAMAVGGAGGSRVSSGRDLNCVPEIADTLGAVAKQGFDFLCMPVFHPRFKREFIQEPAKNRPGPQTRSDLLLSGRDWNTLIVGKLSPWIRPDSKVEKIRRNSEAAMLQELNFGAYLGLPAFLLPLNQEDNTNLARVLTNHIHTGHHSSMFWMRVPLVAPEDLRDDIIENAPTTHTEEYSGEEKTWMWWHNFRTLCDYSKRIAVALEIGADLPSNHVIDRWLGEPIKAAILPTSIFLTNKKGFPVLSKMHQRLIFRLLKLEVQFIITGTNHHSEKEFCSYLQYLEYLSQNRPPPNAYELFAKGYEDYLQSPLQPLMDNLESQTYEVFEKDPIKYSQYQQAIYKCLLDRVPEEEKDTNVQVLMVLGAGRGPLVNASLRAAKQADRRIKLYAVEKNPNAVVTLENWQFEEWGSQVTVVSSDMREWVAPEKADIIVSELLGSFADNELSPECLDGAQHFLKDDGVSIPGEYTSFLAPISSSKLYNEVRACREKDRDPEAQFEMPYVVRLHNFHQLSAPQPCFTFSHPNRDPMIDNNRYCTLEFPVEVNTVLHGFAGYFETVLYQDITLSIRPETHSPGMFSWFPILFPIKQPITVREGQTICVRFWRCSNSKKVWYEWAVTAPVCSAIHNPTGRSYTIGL
PRMT5/MEP50 complex, sequence (Q9BQA1 whole entry, further chain, the tested form may be a part): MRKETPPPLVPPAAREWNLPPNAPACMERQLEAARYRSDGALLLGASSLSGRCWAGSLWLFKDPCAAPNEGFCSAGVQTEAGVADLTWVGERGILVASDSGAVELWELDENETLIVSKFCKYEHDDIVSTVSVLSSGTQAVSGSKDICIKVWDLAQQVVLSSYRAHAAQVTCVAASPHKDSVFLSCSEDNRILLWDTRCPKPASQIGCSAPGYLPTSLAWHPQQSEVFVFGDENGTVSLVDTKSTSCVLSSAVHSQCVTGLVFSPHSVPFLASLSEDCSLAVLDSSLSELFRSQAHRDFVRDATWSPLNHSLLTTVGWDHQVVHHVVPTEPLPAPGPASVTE
The nature of test [1]: Antiproliferative activity against human Z138 cells assessed as inhibition of cell viability after 5 days by Cell-Titer Glo assay. The settings on record: Z-138, 120 h. Type of test: functional, cell-based.
Test [2] addresses Protein arginine N-methyltransferase 5 (Homo sapiens, UniProt O14744). As to the kind of experiment: Inhibition of PRMT5 in human Z138 cells assessed as decrease in di-methyl arginine levels after 96 hrs by Western blot method. It counts as cell-based. Background: In western blotting, separated proteins are transferred to a membrane and probed.

Protein arginine N-methyltransferase 5, sequence (O14744 whole entry): as the sequence (O14744 whole entry, the tested form may be a part) above

Turning to `O[C@H](COc1cccc(CNC2CCCC2)c1)CN1CCc2ccccc2C1`, the IC50 at PRMT5/MEP50 complex lay within 0.101 to 1 µM. Further, the concentration for a half-maximal effect (EC50) in test [1] was 10 to 40 µM.

For the molecule `CN(Cc1ccc(OCC(O)CN2CCc3ccccc3C2)cc1)C1CCCC1` (stereo not given), the IC50 on PRMT5/MEP50 complex was 1 to 10 µM. In test [1], the EC50 was above 40 µM. As for `O=C(NC[C@H](O)CN1CCc2ccccc2C1)c1cccc(NC2CCOCC2)c1`, the IC50 on PRMT5/MEP50 complex is below 0.1 µM. For the same molecule, in test [1], the EC50 was 0.101 to 1 µM. Turning to `CCCCNCc1cccc(COCC(O)CN2CCc3ccccc3C2)c1` (stereo not given), the IC50 at PRMT5/MEP50 complex lay in the range of 0.101 to 1 µM. The 50% effective concentration (EC50) in test [1] was above 20 µM. Take `Cc1nn(-c2ccccc2)c(C)c1COCC(O)CN1CCc2ccccc2C1` (stereo not given): at PRMT5/MEP50 complex, the IC50 is 1 to 10 µM. The EC50 in test [1] is above 40 µM. Regarding `CC1c2ccccc2CCN1CC(O)COc1cccc(CNC2CCCC2)c1` (stereo not given), at PRMT5/MEP50 complex, the IC50 lay in the range of 1 to 10 µM. `O=C1CN(c2ccccc2F)CCN1CC(O)CN1CCc2ccccc2C1` (stereo not given): the EC50 in test [2] is above 50 µM. Consider `OC(COCc1ccc(OCc2ccccc2)cc1)CN1CCc2ccccc2C1` (stereo not given), for which the IC50 on PRMT5/MEP50 complex was in the range of 1 to 10 µM. The EC50 in test [1] was above 20 µM. As for `Cc1cn(C)c2cccc(OCC(=O)NCC(O)CN3CCc4ccccc4C3)c12` (stereo not given), the 50% inhibitory concentration (IC50) at PRMT5/MEP50 complex was below 0.1 µM. In test [2], the EC50 was 0.101 to 1 µM. On to `Cc1ccccc1N1CCN(CC(O)CN2CCc3ccccc3C2)C(=O)C1` (stereo not given), for which the EC50 in test [2] is above 50 µM. Consider `OC(COC1CCNCC1)CN1CCc2ccccc2C1` (stereo not given), for which, on PRMT5/MEP50 complex, the half-inhibitory concentration (IC50) was above 40 µM. Also, the EC50 in test [1] was above 40 µM. As to `O=C(Nc1cc[nH]n1)c1cccc(OCC(O)CN2CCc3ccccc3C2)c1` (stereo not given), the half-inhibitory concentration (IC50) on PRMT5/MEP50 complex was in the range of 1 to 10 µM. As for `CN1CCC(OCC(O)CN2CCc3ccccc3C2)C1` (stereo not given), the IC50 at PRMT5/MEP50 complex is above 40 µM. The concentration for a half-maximal effect (EC50) in test [1] was above 40 µM. With `CC(C(O)COc1cccc(CNC2CCCC2)c1)N1CCc2ccccc2C1` (stereo not given), the IC50 at PRMT5/MEP50 complex was 1 to 10 µM. The half-maximal effective concentration (EC50) in test [1] is above 40 µM. Turning to `Cn1cnc2ccc(-c3cccc(OC[C@@H](O)CN4Cc5ccccc5C4)c3)cc21`, the concentration for half-maximal inhibition (IC50) at PRMT5/MEP50 complex is 10 to 50 µM. Regarding `OC(COCC1CCCCO1)CN1CCc2ccccc2C1` (stereo not given), the 50% inhibitory concentration (IC50) on PRMT5/MEP50 complex was above 40 µM. For the same molecule, in test [1], the EC50 is above 40 µM.

`Cn1cnc2ccc(-c3cccc(OC[C@H](O)CN4Cc5ccccc5C4)c3)cc21`: the IC50 on PRMT5/MEP50 complex was 1 to 10 µM. As to `CC(C)n1nccc1-c1ccc(OCC(O)CN2CCc3ccccc3C2)cc1` (stereo not given), the 50% inhibitory concentration (IC50) at PRMT5/MEP50 complex lay in the range of 10 to 40 µM. For the same molecule, the EC50 in test [1] was above 40 µM. For the molecule `COc1ccc(Cn2cnc3ccc(-c4ccc(OCC(O)CN5Cc6ccccc6C5)cc4)cc32)cc1` (stereo not given), the IC50 on PRMT5/MEP50 complex was in the range of 1 to 10 µM. Consider `OC(COc1ccc(-n2cncn2)cc1)CN1CCc2ccccc2C1` (stereo not given), for which the IC50 at PRMT5/MEP50 complex was in the range of 1 to 10 µM. In addition, the EC50 in test [1] was above 20 µM. Turning to `Cn1nccc1-c1cccc(CC(=O)NCC(O)CN2CCc3ccccc3C2)c1` (stereo not given), the IC50 at PRMT5/MEP50 complex lay in the range of 0.101 to 1 µM. For the same molecule, the EC50 in test [2] fell in the range of 0.101 to 1 µM. Consider `CC(C)n1ccc(-c2ccc(OCC(O)CN3CCc4ccccc4C3)cc2)n1` (stereo not given), for which, at PRMT5/MEP50 complex, the IC50 was 1 to 10 µM. The half-maximal effective concentration (EC50) in test [1] is above 40 µM. On to `C[C@@H](Oc1cccc2cccnc12)C(=O)NC[C@@H](O)CN1Cc2ccccc2C1`, for which the concentration for half-maximal inhibition (IC50) on PRMT5/MEP50 complex lay within 1 to 10 µM.

For `CCn1ccnc1COCC(O)CN1CCc2ccccc2C1` (stereo not given), at PRMT5/MEP50 complex, the IC50 was above 40 µM. In addition, in test [1], the half-maximal effective concentration (EC50) is above 40 µM.

With `Nc1cccc(C(=O)NCC(O)CN2Cc3ccccc3C2)c1` (stereo not given), on PRMT5/MEP50 complex, the IC50 fell in the range of 1 to 10 µM.

As for `Cn1cnc2ccc(-c3cccc(OCC(O)CN4Cc5ccccc5C4)c3)cc21` (stereo not given), at PRMT5/MEP50 complex, the IC50 lay in the range of 1 to 10 µM. On to `Cn1ccnc1-c1ccccc1OCC(=O)NCC(O)CN1CCc2ccccc2C1` (stereo not given), for which the IC50 on PRMT5/MEP50 complex was 0.101 to 1 µM. Also, the EC50 in test [2] fell in the range of 1 to 10 µM. With `OC(COCc1ccncc1)CN1CCc2ccccc2C1` (stereo not given), the IC50 on PRMT5/MEP50 complex fell in the range of 10 to 40 µM. As to `OC(COCc1c(Cl)cccc1Cl)CN1CCc2ccccc2C1` (stereo not given), the 50% inhibitory concentration (IC50) at PRMT5/MEP50 complex is 1 to 10 µM. Besides, the 50% effective concentration (EC50) in test [1] was 10 to 40 µM. For the molecule `O=C(c1ccc(Cn2ccc(-c3ccc(OCC(O)CN4CCc5ccccc5C4)cc3)n2)cc1)N1CCCC1` (stereo not given), the IC50 at PRMT5/MEP50 complex is 1 to 10 µM. For the same molecule, in test [1], the EC50 lay within 10 to 40 µM. Turning to `OC(COC1CCCNC1)CN1CCc2ccccc2C1` (stereo not given), the half-maximal inhibitory concentration (IC50) on PRMT5/MEP50 complex is above 40 µM. In addition, in test [1], the half-maximal effective concentration (EC50) is above 40 µM.

As to `Cn1cnc2ccc(-c3cccc(OCC(O)CN4Cc5ccccc5C(F)(F)C4)c3)cc21` (stereo not given), the IC50 at PRMT5/MEP50 complex is above 10 µM. On to `OC(COC1CCN(Cc2ccccc2)CC1)CN1CCc2ccccc2C1` (stereo not given), for which, on PRMT5/MEP50 complex, the concentration for half-maximal inhibition (IC50) was 1 to 10 µM. In addition, in test [1], the concentration for a half-maximal effect (EC50) was above 40 µM.

For the molecule `OC(COCc1cccnc1)CN1CCc2ccccc2C1` (stereo not given), the IC50 at PRMT5/MEP50 complex is 10 to 40 µM.

Turning to `CC(C)(C)OC(=O)N1CC(OCC(O)CN2CCc3ccccc3C2)C1` (stereo not given), the IC50 on PRMT5/MEP50 complex was in the range of 1 to 10 µM. Besides, the EC50 in test [1] is above 40 µM. Consider `C[C@H](Oc1cccc2cccnc12)C(=O)NC[C@H](O)CN1Cc2ccccc2C1`, for which the half-inhibitory concentration (IC50) at PRMT5/MEP50 complex was in the range of 1 to 10 µM. As for `O=c1cc(-c2ccccc2)ccn1C[C@H](O)CN1CCc2ccccc2C1`, in test [2], the EC50 is above 50 µM. With `O=C(Cc1cccc2cccnc12)NCC(O)CN1CCc2ccccc2C1` (stereo not given), on PRMT5/MEP50 complex, the IC50 lay within 0.101 to 1 µM. In addition, the EC50 in test [2] fell in the range of 1 to 10 µM. For `COc1cc2c(cc1OC)CN(CC(O)COc1cccc(CNC3CCCC3)c1)CC2` (stereo not given), the half-inhibitory concentration (IC50) on PRMT5/MEP50 complex was above 40 µM. Also, the half-maximal effective concentration (EC50) in test [1] lay in the range of 10 to 40 µM. Regarding `OC(COC1CCOCC1)CN1CCc2ccccc2C1` (stereo not given), at PRMT5/MEP50 complex, the IC50 was in the range of 10 to 40 µM. For the same molecule, the half-maximal effective concentration (EC50) in test [1] was above 40 µM.

The term IC50 denotes the concentration that gives 50% inhibition. The term EC50 denotes the midpoint of the concentration-response curve.
